Source: the supplement of paper PMC10307832

Key:
Assay in all cases: relative viability (nuclei count vs DMSO), 5 days (fraction); higher = more cells survive
Tozasertib + Phenformin = compound: Cc1cc(Nc2cc(N3CCN(C)CC3)nc(Sc3ccc(NC(=O)C4CC4)cc3)n2)n[nH]1 [Tozasertib] + N=C(N)NC(=N)NCCc1ccccc1 [Phenformin] (partner 250 µM)
Summary of the method: (§1)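 Values are medians from duplicate plates. Each reflects relative viability, defined as the nuclei count of treated wells over that of vehicle wells. Lung cancer cell lines in 1536-well plates were pin-tool dosed one day after seeding with one drug alone or with a fixed anchor-drug dose plus five library-drug doses (not always all listed) in √10 steps, then fixed, stained and imaged at 4× after 5 days.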

Tozasertib + Pictilisib = compound: Cc1cc(Nc2cc(N3CCN(C)CC3)nc(Sc3ccc(NC(=O)C4CC4)cc3)n2)n[nH]1 [Tozasertib] + CS(=O)(=O)N1CCN(Cc2cc3nc(-c4cccc5[nH]ncc45)nc(N4CCOCC4)c3s2)CC1 [Pictilisib] (partner 1 µM)
Summary of the method: as §1

Tozasertib + Bortezomib = compound: Cc1cc(Nc2cc(N3CCN(C)CC3)nc(Sc3ccc(NC(=O)C4CC4)cc3)n2)n[nH]1 [Tozasertib] + CC(C)C[C@H](NC(=O)[C@H](Cc1ccccc1)NC(=O)c1cnccn1)B(O)O [Bortezomib] (partner 0.002 µM)
Summary of the method: as §1

Tozasertib + Navitoclax = compound: Cc1cc(Nc2cc(N3CCN(C)CC3)nc(Sc3ccc(NC(=O)C4CC4)cc3)n2)n[nH]1 [Tozasertib] + CC1(C)CCC(c2ccc(Cl)cc2)=C(CN2CCN(c3ccc(C(=O)NS(=O)(=O)c4ccc(N[C@H](CCN5CCOCC5)CSc5ccccc5)c(S(=O)(=O)C(F)(F)F)c4)cc3)CC2)C1 [Navitoclax] (partner 0.5 µM)
Summary of the method: as §1

Tozasertib + Linsitinib = compound: Cc1cc(Nc2cc(N3CCN(C)CC3)nc(Sc3ccc(NC(=O)C4CC4)cc3)n2)n[nH]1 [Tozasertib] + C[C@]1(O)C[C@@H](c2nc(-c3ccc4ccc(-c5ccccc5)nc4c3)c3c(N)nccn32)C1 [Linsitinib] (partner 1 µM)
Summary of the method: as §1

Cell Line	relative viability (Tozasertib + Phenformin; first compound 0.004 µM)	relative viability (Tozasertib + Phenformin; first compound 0.01265 µM)	relative viability (Tozasertib + Phenformin; first compound 0.04 µM)	relative viability (Tozasertib + Phenformin; first compound 0.1265 µM)	relative viability (Tozasertib + Pictilisib; first compound 0.004 µM)	relative viability (Tozasertib + Pictilisib; first compound 0.01265 µM)	relative viability (Tozasertib + Pictilisib; first compound 0.04 µM)	relative viability (Tozasertib + Pictilisib; first compound 0.1265 µM)	relative viability (Tozasertib + Bortezomib; first compound 0.004 µM)	relative viability (Tozasertib + Bortezomib; first compound 0.01265 µM)	relative viability (Tozasertib + Bortezomib; first compound 0.04 µM)	relative viability (Tozasertib + Bortezomib; first compound 0.1265 µM)	relative viability (Tozasertib + Navitoclax; first compound 0.004 µM)	relative viability (Tozasertib + Navitoclax; first compound 0.01265 µM)	relative viability (Tozasertib + Navitoclax; first compound 0.04 µM)	relative viability (Tozasertib + Navitoclax; first compound 0.1265 µM)	relative viability (Tozasertib + Linsitinib; first compound 0.004 µM)	relative viability (Tozasertib + Linsitinib; first compound 0.01265 µM)	relative viability (Tozasertib + Linsitinib; first compound 0.04 µM)	relative viability (Tozasertib + Linsitinib; first compound 0.1265 µM)
CAL-12T	0.669	0.499	0.529	0.272	0.472	0.386	0.414	0.171	1.2	0.785	0.962	0.362	1.33	1.14	1.31	1.08	0.857	0.804	0.793	0.64
COR-L23	0.44	0.425	0.407	0.176	0.724	0.756	0.783	0.397	0.986	0.889	0.888	0.864	1	0.897	0.954	0.757	0.99	0.906	0.846	0.39
COR-L 105	0.501	0.46	0.483	0.275	0.434	0.511	0.412	0.267	0.879	0.815	0.943	0.291	0.787	0.644	0.932	0.542	1.15	1.15	1.02	0.868
EKVX	0.256	0.212	0.23	0.222	0.383	0.443	0.527	0.348	1.19	0.993		1.05	0.932	0.939	1.06	0.914	0.812	0.975	1.18	0.913
EMC-BAC-2	0.486	0.513	0.518	0.357	0.547	0.541	0.654	0.395	1.09	1.05	0.96		1.18	1.14	1.25	0.812	0.867	0.79		0.611
EPLC-272H	0.307	0.337	0.256	0.275	0.442	0.31	0.326		0.774	0.804	0.775		1.1	1.17	1.08		1.13	1.18	1.12	
H3255	0.291	0.396	0.379	0.353		0.463	0.533	0.413	0.789	0.7	0.823	0.549	0.336	0.594	0.569	0.463	0.862	0.758	1.04	0.817
HARA	0.365	0.44	0.493	0.444	0.421	0.44	0.373	0.243	1.18	1	1.01	0.664	1.17	1.07	1.15	1.07	1		1.01	0.374
HCC-15	0.504	0.477	0.5	0.341	0.702	0.653	0.802	0.585	0.999			0.851	0.692	0.692	0.768	0.641	0.893	0.778	0.882	0.734
HCC-44	0.184	0.251	0.184	0.104	0.596	0.603	0.67	0.409	0.866	0.942	1.04	0.786	1.04	0.977	0.985	0.955	0.653	0.606	0.691	0.546
HCC-78	0.957	0.608	0.699	0.525	0.235	0.203	0.202	0.171	0.504			0.497	0.822	0.633		0.539	0.661	0.452	0.588	0.439
HCC-366	0.629	0.56	0.661	0.651	0.106	0.135	0.122	0.0817	1.2	1	1.15	0.53	1.09	0.945	1.17	0.752	0.766	0.6	0.755	0.101
HCC-827	0.384	0.403	0.484	0.406	0.872	0.999	1.14	0.918	1.03	1.04	1.06	0.839	0.973	1.09	1.03	0.925	1.02	1		0.84
HOP-62	0.732	0.578	0.616	0.617	0.741	0.605	0.926	0.565	0.735	0.713	0.404	0.67	1.06	0.946	1.08	0.99	1.05	0.876		1.09
LC-2-ad	0.618	0.548	0.514	0.299	0.505	0.516	0.427	0.127	0.949	0.978	1.04	0.427	0.412	0.431	0.396	0.147	0.906	0.82	0.684	0.329
LCLC-97TM1	0.438	0.437	0.459	0.407		0.181	0.222	0.11	0.933	0.271	0.624	0.106		0.434	0.466	0.242		0.204	0.155	0.163
